{"source": "paper PMC12605013", "about": "“SAG1.3-derived Frizzled-targeting small-molecule compounds” (The Journal of Biological Chemistry, 2025)", "key": {"[1]": {"tested_on": "human FZD5", "assay": "TOPFlash reporter gene assay in ΔFZD1–10 HEK293T cells transfected with HiBiT-FZD5", "format": "cell-based", "conditions": "for IC50: Homo sapiens, HEK-293T, 300 ng/ml WNT-3A, HiBiT-FZD5"}, "[2]": {"biological_target": "T1, muscarinic acetylcholine M1 receptor (Homo sapiens, UniProt P11229)", "T1 construct": "HA (N); expressed in transfected cells; host or cells: HEK293A cells", "T1 sequence (P11229 2-460)": "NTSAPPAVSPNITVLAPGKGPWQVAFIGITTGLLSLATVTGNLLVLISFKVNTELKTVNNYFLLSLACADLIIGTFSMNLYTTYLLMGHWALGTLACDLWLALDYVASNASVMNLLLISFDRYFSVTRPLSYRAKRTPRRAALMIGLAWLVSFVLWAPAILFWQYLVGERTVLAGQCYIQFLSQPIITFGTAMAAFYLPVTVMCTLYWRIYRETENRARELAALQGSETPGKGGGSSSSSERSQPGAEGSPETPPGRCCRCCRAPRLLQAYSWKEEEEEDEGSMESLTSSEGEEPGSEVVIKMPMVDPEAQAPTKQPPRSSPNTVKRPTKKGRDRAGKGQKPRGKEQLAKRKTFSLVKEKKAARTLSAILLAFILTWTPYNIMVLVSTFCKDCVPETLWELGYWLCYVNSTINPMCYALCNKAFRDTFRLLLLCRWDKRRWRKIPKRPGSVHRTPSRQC", "assay": "BRET-based Venus-mGsq recruitment assay at M1R-Nluc", "format": "cell-based", "protocol": "The transfected cells were seeded at a density of 40,000 cells per well into a white opaque 96-well plate. […] Following a 10 min incubation period in the dark, the measurement was started on a TECAN Spark multimode microplate reader, prewarmed to 37 °C. After the three baseline measurements, the ligands diluted in HBSS were added (10 μl) and the measurement continued for a further 15 min. Nluc bioluminescence was detected between 460 and 500 nm. The emission of Venus was detected between 520 and 560 nm.\nFigure S3. […] Experiments were performed in HEK293 cells."}, "[3]": {"tested_on": "FZD5–DEP–Clamp sensor", "assay": "FZD5–DEP–Clamp BRET sensor in stably expressing HEK293A cells", "format": "cell-based, human", "protocol": "To generate the stable FZD5–DEP–Clamp cell line, HEK293A cells were seeded at a density of 500,000 cells/well in a 6-well plate. On the next day, the adherent cells were transfected with 2 μg of FZD5–DEP–Clamp (TK) plasmid using PEI as the transfection reagent. After 2 days of transfection, cells were detached and transferred to a 75 cm^2 flask. Stably transfected cells were selected using complete medium (DMEM + 10% fetal calf serum + 1% penicillin–streptomycin) supplemented with 2000 μg/ml G-418 sulfate (Gibco; catalog no.: 10131027) for 3 weeks. After obtaining stable growth, cell culture of the stable cell line was continued with 500 μg/ml G-418.\nFor kinetic experiments with the FZD5–DEP–Clamp sensor, BRET values were first baseline-corrected for every well separately by subtracting the average of the first three reads prior ligand addition. Afterward, the average values for vehicle-containing wells were subtracted for every timepoint to get access to actual ligand-induced changes in BRET ratio (ΔBRET values).\nFigure S4. […] (A) Shown is the BRET time-course recorded upon addition of 30 µM compound 11 or vehicle (DMSO). […] The cell surface pool of transiently-transfected HiBiT-FZD5 (B) and HiBiT-FZD6 (C) was assessed by addition of recombinant LgBiT in combination with detection of NanoBiT luminescence. […]"}, "[4]": {"biological_target": "T2, HiBiT-FZD6 (Homo sapiens, UniProt O60353)", "T2 construct": "expressed in transfected cells; host or cells: HEK293A cells", "T2 sequence (O60353 19-706)": "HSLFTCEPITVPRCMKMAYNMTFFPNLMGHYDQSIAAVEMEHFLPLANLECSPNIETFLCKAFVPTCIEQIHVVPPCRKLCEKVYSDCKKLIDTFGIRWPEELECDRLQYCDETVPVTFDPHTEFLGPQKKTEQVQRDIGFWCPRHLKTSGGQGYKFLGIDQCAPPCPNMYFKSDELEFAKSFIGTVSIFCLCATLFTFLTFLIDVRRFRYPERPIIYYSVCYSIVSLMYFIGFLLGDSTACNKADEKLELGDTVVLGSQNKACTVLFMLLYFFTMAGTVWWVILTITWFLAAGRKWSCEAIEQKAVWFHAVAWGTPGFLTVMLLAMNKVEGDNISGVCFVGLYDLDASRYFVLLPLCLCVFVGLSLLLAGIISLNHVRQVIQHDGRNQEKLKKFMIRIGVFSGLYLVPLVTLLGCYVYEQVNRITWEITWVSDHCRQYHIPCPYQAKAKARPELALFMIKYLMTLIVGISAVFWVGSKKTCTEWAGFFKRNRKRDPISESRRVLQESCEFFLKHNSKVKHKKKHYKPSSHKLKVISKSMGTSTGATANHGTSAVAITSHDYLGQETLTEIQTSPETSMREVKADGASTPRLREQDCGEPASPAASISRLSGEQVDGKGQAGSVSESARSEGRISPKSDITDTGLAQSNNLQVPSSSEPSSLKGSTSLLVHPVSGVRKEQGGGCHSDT", "assay": "NanoBiT cell surface expression assay, HiBiT-FZD6", "format": "cell-based", "conditions": "10 μM, overnight exposure", "protocol": "Subsequently, 10 μl of either compound 11 or 26 (DD436001) was added at a final concentration of 10 μM. DMSO was added separately as a control. One day after compound or DMSO addition, cells were washed once with HBSS, and 90 μl of HBSS was added to the wells. To measure cell surface expression, a 1:20 dilution of furimazine live cell substrate and 1:20 LgBiT mix (final dilution = 1:200) were prepared in HBSS and 10 μl was added. The plate was incubated for 30 min to allow for HiBiT–LgBiT complementation, and then luminescence was measured on a TECAN Spark multimode microplate reader between 460 and 500 nm (integration time: 200 ms).\nFigure S4. BRET time-course of compound 11 at the FZD5-DEP-Clamp in agonist mode and HiBiT-FZD5/6 surface expression upon compound exposure. (A) Shown is the BRET time-course recorded upon addition of 30 µM compound 11 or vehicle (DMSO). Experiments were performed in HEK293A cells stably expressing the FZD5-DEP-Clamp sensor. […] The timepoint of ligand addition is indicated by a black arrow. (B, C) Impact of compound 11 on FZD cell surface expression. The cell surface pool of transiently-transfected HiBiT-FZD5 (B) and HiBiT-FZD6 (C) was assessed by addition of recombinant LgBiT in combination with detection of NanoBiT luminescence. […]"}, "[5]": {"tested_on": "HiBiT-FZD4, HiBiT-FZD7 or HiBiT-FZD8", "assay": "TOPFlash reporter gene assay, test for paralog selectivity", "conditions": "10 µM compound; 300 ng/mL WNT-3A", "description": "The transfected cell suspension was then seeded (45,000 cells/well) into a PDL-coated, white opaque 96-well plate. One day after transfection, cells were washed once with HBSS, and 80 μl of serum-free DMEM containing 10 nM of the porcupine inhibitor C59 were added. […] All ligands/vehicle controls were diluted in serum-free DMEM containing 10 nM C59. One day after ligand stimulation, cells were washed once with HBSS, and the lysis was started using 1× Passive Lysis Buffer (Promega; catalog no.: E1910, 20 μl/well), after which the plate was shaken for 20 min at room temperature. Fluc and Rluc bioluminescence were then assessed using the Dual-Luciferase Assay System (Promega; catalog no.: E1910, 20 μl of both LARII [Luciferase Assay II reagent] and 1× Stop-and-Glo Reagent). Measurements were performed using a TECAN Spark multimode microplate reader.\nFor reporter gene assays, the TOPFlash ratio was defined as the ratio of β-catenin-dependent gene transcription (Fluc) over a constitutively expressed transfection control (Rluc). For all experiments, the calculated TOPFlash ratios were normalized to the respective vehicle conditions.\nExperiments were performed in ΔFZD1-10 HEK293T cells transiently transfected with HiBiT-FZD4 (A), HiBiT-FZD7 (B) or HiBiT-FZD8 (C). Data represent mean values ± SEM from three independent experiments performed in triplicate. […]"}}, "note": "Where two headings read alike, the source gives them in different places."}
{"smiles": "CC(=O)Nc1cccc(C(=O)NC2CCC(N(Cc3cccc(-c4ccncc4)c3)C(=O)c3sc4ccccc4c3Cl)CC2)c1", "note": "(stereo not shown) [compound 11, N-((1r,4r)-4-(3-Acetamidobenzamido)cyclohexyl)-3-chloro-N-(3-(pyridin-4-yl)benzyl)benzo[b]thiophene-2-carboxamide]", "values": [{"measurement": "IC50", "setting": "[1]; equal to the pIC50, read-out: IC50, inhibition of WNT-3A-induced TOPFlash response", "result": 1.2, "unit": "µM"}, {"measurement": "IC50", "setting": "[1]; read-out: pIC50, inhibition of WNT-3A-induced TOPFlash response (converted)", "result": 1.2, "unit": "µM"}, {"measurement": "Effect on WNT surrogate-induced TOPFlash signal", "setting": "[1]; WNT surrogate 250 pM, coaddition of compound", "result": "could also be blocked"}, {"measurement": "TOPFlash response to compound alone", "setting": "[1]; absence of added WNT-3A", "result": "not inducing any effect"}, {"measurement": "Effect on carbachol-induced M1-mediated mini-Gsq response", "setting": "[2]; 10 µM compound +/- carbachol", "result": "nor affected the concentration-dependent M1-mediated mini-Gsq response"}, {"measurement": "mini-Gsq recruitment, compound alone (agonist mode)", "setting": "[2]; increasing concentrations of compound", "result": "neither elicited a mini-Gsq recruitment on its own"}, {"measurement": "Effect on WNT-induced FZD5–DEP–Clamp response", "setting": "[3]; 500 ng/ml high-purity WNT-3A with 30 μM compound", "result": "able to interfere with the WNT-induced effects"}, {"measurement": "BRET response of FZD5–DEP–Clamp, compound alone", "setting": "[3]; 30 µM compound, agonist mode", "result": "did not elicit a robust change in BRET response"}, {"measurement": "Effect on surface levels of HiBiT-FZD6", "setting": "[4]", "result": "had no effect"}, {"measurement": "Subtype preference in TOPFlash assays", "setting": "[5]", "result": "did not show a subtype preference"}]}
